Results as given in PubChem BioAssay (NCI).
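Here, GI50 denotes the concentration required for 50% inhibition of growth. The concentration for full growth arrest is given as TGI.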

Experiments:
Test in all cases: growth of human tumour cells (NCI), 384-well format
[1] = test system: COLO 205 colon
[2] = test system: SNB-19 CNS
[3] = test system: ACHN renal
[4] = test system: K-562 leukemia
[5] = test system: M14 melanoma
[6] = test system: KM12 colon
[7] = test system: SN12C renal
[8] = test system: EKVX NSCLC
[9] = test system: MALME-3M melanoma
[10] = test system: LOX IMVI melanoma
[11] = test system: MDA-MB-468 breast
[12] = test system: NCI-H322M lung
[13] = test system: TK-10 renal
[14] = test system: PC-3 prostate
[15] = test system: HT29 colon
[16] = test system: HOP-92 NSCLC
[17] = test system: HCT-15 colon
[18] = test system: CCRF-CEM leukemia
[19] = test system: HOP-62 NSCLC
[20] = test system: NCI-H522 lung
[21] = test system: NCI-H226 lung
[22] = test system: 786-0 renal
[23] = test system: SW-620 colon
[24] = test system: HCC-2998 colon
[25] = test system: SNB-75 CNS
[26] = test system: SF-268 CNS
[27] = test system: RPMI-8226 leukemia
[28] = test system: MCF7 breast
[29] = test system: UO-31 renal
[30] = test system: NCI/ADR-RES ovarian
[31] = test system: UACC-257 melanoma
[32] = test system: SF-539 CNS
[33] = test system: UACC-62 melanoma
[34] = test system: CAKI-1 renal
[35] = test system: RXF 393 renal
[36] = test system: SK-MEL-28 melanoma
[37] = test system: A498 renal
[38] = test system: MDA-MB-435 melanoma
[39] = test system: OVCAR-3 ovarian
[40] = test system: OVCAR-5 ovarian
[41] = test system: BT-549 breast
[42] = test system: HS 578T breast
[43] = test system: A549 NSCLC
[44] = test system: SF-295 CNS
[45] = test system: HL-60(TB) leukemia
[46] = test system: T-47D breast
[47] = test system: MDA-MB-231 breast
[48] = test system: NCI-H23 lung
[49] = test system: U251 glioblastoma
[50] = test system: SK-OV-3 ovarian
[51] = test system: OVCAR-8 ovarian
[52] = test system: IGROV1 ovarian
[53] = test system: HCT-116 colon
[54] = test system: OVCAR-4 ovarian
[55] = test system: MOLT-4 leukemia
[56] = test system: DU-145 prostate
[57] = test system: SK-MEL-2 melanoma
[58] = test system: NCI-H460 NSCLC
[59] = test system: SK-MEL-5 melanoma

C[C@@H]1Cc2c([nH]c3ccccc23)[C@@H](c2c(F)cc(/C=C/C(=O)O)cc2F)N1CC(C)(C)F
GI50 [1]: 17.7 µM
TGI [1]: 39.3 µM
GI50 [2]: 15.5 µM
TGI [2]: 32.2 µM
GI50 [3]: 17.7 µM
TGI [3]: 35.2 µM
GI50 [4]: 15.4 µM
TGI [4]: 29.3 µM
GI50 [5]: 15.7 µM
TGI [5]: 29.3 µM
GI50 [6]: 16.5 µM
TGI [6]: 30.5 µM
GI50 [7]: 17.3 µM
TGI [7]: 32.3 µM
GI50 [8]: 15.6 µM
TGI [8]: 31.4 µM
GI50 [9]: 14.5 µM
TGI [9]: 27.9 µM
GI50 [10]: 17.2 µM
TGI [10]: 31.2 µM
GI50 [11]: 20.4 µM
TGI [11]: 40.2 µM
GI50 [12]: 17.9 µM
TGI [12]: 38.1 µM
GI50 [13]: 17.7 µM
TGI [13]: 35.2 µM
GI50 [14]: 13.4 µM
TGI [14]: 26.6 µM
GI50 [15]: 15.2 µM
TGI [15]: 28.8 µM
GI50 [16]: 14.5 µM
TGI [16]: 28 µM
GI50 [17]: 14.3 µM
TGI [17]: 27.8 µM
GI50 [18]: 13 µM
TGI [18]: 25.8 µM
GI50 [19]: 10.2 µM
TGI [19]: 22.1 µM
GI50 [20]: 16.8 µM
TGI [20]: 30.8 µM
GI50 [21]: 17.4 µM
TGI [21]: 32.6 µM
GI50 [22]: 14.1 µM
TGI [22]: 27.7 µM
GI50 [23]: 16 µM
TGI [23]: 29.7 µM
GI50 [24]: 15.3 µM
TGI [24]: 28.7 µM
GI50 [25]: 17.5 µM
TGI [25]: 33.1 µM
GI50 [26]: 16.3 µM
TGI [26]: 30.9 µM
GI50 [27]: 11.4 µM
TGI [27]: 23.6 µM
TGI [28]: 18.9 µM
GI50 [29]: 13.9 µM
TGI [29]: 27.1 µM
GI50 [30]: 16.8 µM
TGI [30]: 32 µM
GI50 [31]: 17.9 µM
TGI [31]: 33.4 µM
GI50 [32]: 15 µM
TGI [32]: 28.4 µM
GI50 [33]: 15.7 µM
TGI [33]: 29.4 µM
GI50 [34]: 17.1 µM
TGI [34]: 32.7 µM
GI50 [35]: 18.5 µM
TGI [35]: 32.6 µM
GI50 [36]: 17.4 µM
TGI [36]: 31.4 µM
GI50 [37]: 13.7 µM
TGI [37]: 32.4 µM
GI50 [38]: 18.4 µM
TGI [38]: 32.9 µM
GI50 [39]: 13.3 µM
TGI [39]: 26.2 µM
GI50 [40]: 19.2 µM
TGI [40]: 34.3 µM
GI50 [41]: 15.6 µM
TGI [41]: 29.2 µM
GI50 [42]: 14 µM
TGI [42]: 27 µM
GI50 [43]: 11.6 µM
TGI [43]: 24.5 µM
GI50 [44]: 16.4 µM
TGI [44]: 30.5 µM
GI50 [45]: 17 µM
TGI [45]: 30.8 µM
GI50 [46]: 10.7 µM
TGI [46]: 32.5 µM
GI50 [47]: 17.5 µM
TGI [47]: 31.6 µM
GI50 [48]: 15.4 µM
TGI [48]: 29 µM
GI50 [49]: 11.9 µM
TGI [49]: 24.4 µM
GI50 [50]: 19.4 µM
TGI [50]: 39.2 µM
GI50 [51]: 14.9 µM
TGI [51]: 28.6 µM
GI50 [52]: 16.4 µM
TGI [52]: 31.4 µM
GI50 [53]: 14.7 µM
TGI [53]: 28.3 µM
GI50 [54]: 12.8 µM
TGI [54]: 33.5 µM
GI50 [55]: 11.8 µM
TGI [55]: 24.1 µM
GI50 [56]: 15.9 µM
TGI [56]: 35.5 µM
GI50 [57]: 19.7 µM
TGI [57]: 34.2 µM
GI50 [58]: 15.3 µM
TGI [58]: 29 µM
GI50 [59]: 13.9 µM
TGI [59]: 27.2 µM

O=C(O)CCCc1ccc(N(CCCl)CCCl)cc1
GI50 [2]: 35.3 µM
GI50 [3]: 8.31 µM
TGI [3]: 35 µM
GI50 [4]: 41.6 µM
GI50 [5]: 19.5 µM
GI50 [7]: 10.4 µM
GI50 [9]: 29.9 µM
GI50 [10]: 30.4 µM
GI50 [11]: 4.37 µM
TGI [11]: 21.4 µM
GI50 [15]: 51.9 µM
GI50 [16]: 25.3 µM
GI50 [17]: 23.7 µM
GI50 [18]: 3.29 µM
TGI [18]: 8.55 µM
GI50 [19]: 13.6 µM
TGI [19]: 45.8 µM
GI50 [20]: 13.3 µM
TGI [20]: 27.5 µM
GI50 [22]: 24.3 µM
GI50 [23]: 16.9 µM
GI50 [25]: 19.8 µM
GI50 [26]: 9.3 µM
GI50 [27]: 6.45 µM
TGI [27]: 23.6 µM
GI50 [28]: 41 µM
GI50 [29]: 39.8 µM
GI50 [30]: 19.9 µM
GI50 [32]: 16.7 µM
TGI [32]: 60 µM
GI50 [33]: 12 µM
GI50 [34]: 8.78 µM
GI50 [35]: 14.7 µM
TGI [35]: 29.8 µM
GI50 [36]: 57 µM
GI50 [39]: 28.4 µM
GI50 [40]: 45.7 µM
GI50 [41]: 14.1 µM
GI50 [43]: 33.3 µM
GI50 [44]: 18.3 µM
TGI [44]: 41.8 µM
GI50 [45]: 1.64 µM
TGI [45]: 3.75 µM
GI50 [46]: 36 µM
GI50 [47]: 84.7 µM
GI50 [48]: 19.4 µM
TGI [48]: 99.8 µM
GI50 [49]: 11.6 µM
GI50 [50]: 41.1 µM
GI50 [51]: 14.2 µM
GI50 [53]: 28.4 µM
GI50 [55]: 1.26 µM
TGI [55]: 2.52 µM
GI50 [56]: 27.3 µM
TGI [56]: 99.4 µM
